Source: patent US20230121313A1 (priority 2019, published 2023)
Where a name gives a salt, the structure may show the parent alone.

What was measured:
[1] = Solubility of esketamine HCl; details: for solubility: pH 4.5, aqueous buffer
Protocol: The clinical investigational product is an aqueous solution of the drug substance, esketamine hydrochloride (HCl). This formulation is administered intranasally to patients using a dual nasal spray device, which delivers one spray into each nostril. […] The formulation was stored at 37° C. for stability reasons until dosing.

[2] = system: subjects with MDD at imminent risk for suicide; test: Beck Scale for Suicidal Ideation (BSS), Study […]2001; type: in vivo, human; details: 84 mg; for BSS total score change, Diff. of LS Means (minus Placebo): ANCOVA LOCF; for BSS total score, change from baseline, mean / BSS total score, change from baseline, median / BSS total score, mean / BSS total score, median: LOCF, N 34
From the text: (§1) • a. Changes from baseline to Day 2 and Day 25 for the MADRS total score • b. Changes from baseline to Day 1 4-hours postdose, Day 2 and Day 25 for the MADRS Suicide Item • c. Changes from baseline to Day 1 4-hours postdose, Day 2, and Day 25 for the clinical global judgment of suicide risk from the Suicide Ideation and Behavior Assessment Tool (SIBAT) • d. Sustained response (Onset of Clinical Response) defined as at least 50% reduction from baseline in MADRS total score with onset on Day 1 that is maintained through the end of the double-blind phase (Day 25) • e. Changes from baseline to Day 1 4-hours postdose, Day 2, and Day 25 for the Beck Scale for Suicidal Ideation (BSS) • f. Changes from baseline to Day 1 4-hours postdose and Day 25 for the Beck Hopelessness Scale
The BSS is a 21-item self-reported instrument to detect and measure the severity of suicidal ideation in adults and adolescents aged 17 years and older. The BSS total score represents the severity of suicide ideation, and it is calculated by summing the ratings of the first 19 items; the total score ranges from 0 to 38, with a higher score representing greater suicide ideation. Increasing scores reflect increases in suicidal risk.

subjects with TRD = details: human, in vivo, other: intranasal
Protocol: Transient blood pressure increases peaked for the esketamine group at approximately 40 minutes post dose and returned closer to predose levels by 1.5 hours post dose.

[3] = system: subjects with MDD at imminent risk for suicide; test: MADRS suicide item, Study […]2001; type: in vivo, human; details: 84 mg
From the text: as §1
Results of the change from baseline over time for the suicide item from the MADRS assessment can be found in Attachment 1.

[4] = system: patients with treatment-resistant depression (TRD); test: CGI-S, phase 2 dose-response study in TRD; type: in vivo, human
Protocol: Overall illness severity was assessed on the Clinical Global Impression of Severity (CGI-S) scale (Guy, “ECDEU Assessment Manual for Psychopharmacology-Revised (DHEW Publ No ADM 76-338)”, Rockville, Md.: U.S. Department of Health, Education, and Welfare, Public Health Service, Alcohol, Drug Abuse, and Mental Health Administration, NIMH Psychopharmacology Research Branch, Division of Extramural Research Programs; 1976, pp 218-222). Participants assessed their severity of anxiety on the Generalized Anxiety Disorder 7-item (GADS-7) Scale (See, Tables 157 and 158). See, Spitzer, “A brief measure for assessing generalized anxiety disorder—the GAD-7”, Arch. Intern. Med., 2006, 166(10):1092-1097.

CN[C@]1(c2ccccc2Cl)CCCCC1=O [esketamine HCl, (S)-2-(2-chlorophenyl)-2-(methylamino)cyclohexanone hydrochloride]
solubility ([1]; aqueous solution): 207 mg/mL | Maximum solubility expressed as esketamine base ([1]; room temperature, pH 4.5, factor 1.15): 180 mg esketamine base/mL | solubility ([1]; water): 180 mg/mL

CN[C@]1(c2ccccc2Cl)CCCCC1=O [esketamine, (S)-2-(2-chlorophenyl)-2-(methylamino)cyclohexanone]
BSS total score change, Diff. of LS Means (minus Placebo) ([2]; Day 1 (DB): 4 H): −2.3 | BSS total score, change from baseline, mean ([2]; Day 1 (DB): 4 H): −10.2 | BSS total score, change from baseline, median ([2]; Day 1 (DB): 4 H): −8.0 | BSS total score, mean ([2]; Day 1 (DB): 4 H): 13.8 | BSS total score, median ([2]; Day 1 (DB): 4 H): 16.5 | BSS total score change, Diff. of LS Means (minus Placebo) ([2]; Day 2 (DB)): −1.9 | BSS total score, change from baseline, mean ([2]; Day 2 (DB)): −12.9 | BSS total score, change from baseline, median ([2]; Day 2 (DB)): −11.5 | BSS total score, mean ([2]; Day 2 (DB)): 11.1 | BSS total score, median ([2]; Day 2 (DB)): 13.0 | BSS total score change, Diff. of LS Means (minus Placebo) ([2]; End Point (DB)): −1.7 | BSS total score, change from baseline, mean ([2]; End Point (DB)): −19.3 | BSS total score, change from baseline, median ([2]; End Point (DB)): −21.0 | BSS total score, mean ([2]; End Point (DB)): 4.7 | BSS total score, median ([2]; End Point (DB)): 0.0 | BSS total score change vs placebo ([2]; […]2001, Day 1: 4 hours postdose, Day 2 (DB), End Point (DB)): no statistically significant differences | Blood pressure returned closer to predose levels by (post dose) (subjects with TRD): ≤ 1.5 h | Transient blood pressure increases: time of peak post dose (subjects with TRD): approximately 40 minutes | MADRS suicide item (Suicidal Thoughts), Med ([3]; Day 1 (DB): 4 H, LOCF, N 35): 2.0 | MADRS suicide item, change from baseline, Med ([3]; Day 1 (DB): 4 H, LOCF, N 35): −3.0 | MADRS suicide item (Suicidal Thoughts), Med ([3]; Day 1(DB): 4 H, N 35): 2.0 | MADRS suicide item, change from baseline, Med ([3]; Day 1(DB): 4 H, N 35): −3.0 | MADRS suicide item (Suicidal Thoughts), Med ([3]; Day 2(DB) LOCF, N 35): 2.0 | MADRS suicide item, change from baseline, Med ([3]; Day 2(DB) LOCF, N 35): −3.0 | MADRS suicide item (Suicidal Thoughts), Med ([3]; Day 2(DB), N 35): 2.0 | MADRS suicide item, change from baseline, Med ([3]; Day 2(DB), N 35): −3.0 | MADRS suicide item (Suicidal Thoughts), Med ([3]; Day 3(DB) LOCF, N 35): 2.0 | MADRS suicide item, change from baseline, Med ([3]; Day 3(DB) LOCF, N 35): −4.0 | MADRS suicide item (Suicidal Thoughts), Med ([3]; Day 3(DB), N 32): 2.0 | MADRS suicide item, change from baseline, Med ([3]; Day 3(DB), N 32): −4.0 | MADRS suicide item (Suicidal Thoughts), Med ([3]; Day 4(DB) LOCF, N 35): 1.0 | MADRS suicide item, change from baseline, Med ([3]; Day 4(DB) LOCF, N 35): −4.0 | MADRS suicide item (Suicidal Thoughts), Med ([3]; Day 4(DB), N 24): 1.0 | MADRS suicide item, change from baseline, Med ([3]; Day 4(DB), N 24): −4.0 | MADRS suicide item (Suicidal Thoughts), Med ([3]; Day 5(DB) LOCF, N 35): 1.0 | MADRS suicide item, change from baseline, Med ([3]; Day 5(DB) LOCF, N 35): −4.0 | MADRS suicide item (Suicidal Thoughts), Med ([3]; Day 5(DB), N 21): 0.0 | MADRS suicide item, change from baseline, Med ([3]; Day 5(DB), N 21): −4.0 | MADRS suicide item (Suicidal Thoughts), Med ([3]; Day 8(DB) LOCF, N 35): 1.0 | MADRS suicide item, change from baseline, Med ([3]; Day 8(DB) LOCF, N 35): −4.0 | MADRS suicide item (Suicidal Thoughts), Med ([3]; Day 8(DB), N 31): 1.0 | MADRS suicide item, change from baseline, Med ([3]; Day 8(DB), N 31): −4.0 | MADRS suicide item (Suicidal Thoughts), Med ([3]; Day 11(DB) LOCF, N 35): 1.0 | MADRS suicide item, change from baseline, Med ([3]; Day 11(DB) LOCF, N 35): −4.0 | MADRS suicide item (Suicidal Thoughts), Med ([3]; Day 11(DB), N 25): 0.0 | MADRS suicide item, change from baseline, Med ([3]; Day 11(DB), N 25): −4.0 | MADRS suicide item (Suicidal Thoughts), Med ([3]; Day 15(DB) LOCF, N 35): 1.0 | MADRS suicide item, change from baseline, Med ([3]; Day 15(DB) LOCF, N 35): −4.0 | MADRS suicide item (Suicidal Thoughts), Med ([3]; Day 15(DB), N 29): 1.0 | MADRS suicide item, change from baseline, Med ([3]; Day 15(DB), N 29): −4.0 | MADRS suicide item (Suicidal Thoughts), Med ([3]; Day 18(DB) LOCF, N 35): 1.0 | MADRS suicide item, change from baseline, Med ([3]; Day 18(DB) LOCF, N 35): −4.0 | MADRS suicide item (Suicidal Thoughts), Med ([3]; Day 18(DB), N 23): 1.0 | MADRS suicide item, change from baseline, Med ([3]; Day 18(DB), N 23): −4.0 | MADRS suicide item (Suicidal Thoughts), Med ([3]; Day 22(DB) LOCF, N 35): 0.0 | MADRS suicide item, change from baseline, Med ([3]; Day 22(DB) LOCF, N 35): −4.0 | MADRS suicide item (Suicidal Thoughts), Med ([3]; Day 22(DB), N 28): 0.0 | MADRS suicide item, change from baseline, Med ([3]; Day 22(DB), N 28): −4.0 | MADRS suicide item (Suicidal Thoughts), Med ([3]; Day 25(DB): 4 H, N 24): 0.0 | MADRS suicide item, change from baseline, Med ([3]; Day 25(DB): 4 H, N 24): −4.5 | MADRS suicide item (Suicidal Thoughts), Med ([3]; Day 25(DB): Predose LOCF, N 35): 0.0 | MADRS suicide item, change from baseline, Med ([3]; Day 25(DB): Predose LOCF, N 35): −4.0 | MADRS suicide item (Suicidal Thoughts), Med ([3]; Day 25(DB): Predose, N 24): 0.0 | MADRS suicide item, change from baseline, Med ([3]; Day 25(DB): Predose, N 24): −4.5 | MADRS suicide item (Suicidal Thoughts), Med ([3]; Day 32(FU) LOCF, N 26): 0.0 | MADRS suicide item, change from baseline, Med ([3]; Day 32(FU) LOCF, N 26): −4.0 | MADRS suicide item (Suicidal Thoughts), Med ([3]; Day 32(FU), N 26): 0.0 | MADRS suicide item, change from baseline, Med ([3]; Day 32(FU), N 26): −4.0 | MADRS suicide item (Suicidal Thoughts), Med ([3]; Day 39(FU) LOCF, N 27): 0.0 | MADRS suicide item, change from baseline, Med ([3]; Day 39(FU) LOCF, N 27): −5.0 | MADRS suicide item (Suicidal Thoughts), Med ([3]; Day 39(FU), N 26): 0.0 | MADRS suicide item, change from baseline, Med ([3]; Day 39(FU), N 26): −5.0 | MADRS suicide item (Suicidal Thoughts), Med ([3]; Day 46(FU) LOCF, N 27): 0.0 | MADRS suicide item, change from baseline, Med ([3]; Day 46(FU) LOCF, N 27): −4.0 | MADRS suicide item (Suicidal Thoughts), Med ([3]; Day 46(FU), N 25): 0.0 | MADRS suicide item, change from baseline, Med ([3]; Day 46(FU), N 25): −4.0 | MADRS suicide item (Suicidal Thoughts), Med ([3]; Day 53(FU) LOCF, N 27): 0.0 | MADRS suicide item, change from baseline, Med ([3]; Day 53(FU) LOCF, N 27): −4.0 | MADRS suicide item (Suicidal Thoughts), Med ([3]; Day 53(FU), N 24): 0.0 | MADRS suicide item, change from baseline, Med ([3]; Day 53(FU), N 24): −5.0 | MADRS suicide item (Suicidal Thoughts), Med ([3]; Day 67(FU) LOCF, N 27): 0.0 | MADRS suicide item, change from baseline, Med ([3]; Day 67(FU) LOCF, N 27): −4.0 | MADRS suicide item (Suicidal Thoughts), Med ([3]; Day 67(FU), N 26): 0.0 | MADRS suicide item, change from baseline, Med ([3]; Day 67(FU), N 26): −4.0 | MADRS suicide item (Suicidal Thoughts), Med ([3]; Day 81(FU), N 24): 0.0 | MADRS suicide item, change from baseline, Med ([3]; Day 81(FU), N 24): −5.0 | MADRS suicide item (Suicidal Thoughts), Med ([3]; End Point(DB), N 35): 0.0 | MADRS suicide item, change from baseline, Med ([3]; End Point(DB), N 35): −4.0 | MADRS suicide item (Suicidal Thoughts), Med ([3]; End Point(FU), N 27): 0.0 | MADRS suicide item, change from baseline, Med ([3]; End Point(FU), N 27): −5.0 | CGI-S Median (Range) ([4]; Period 1, 28 mg): 4.0 (3, 5) | CGI-S Median Change (Range) from baseline to end point ([4]; Period 1, 28 mg): −1.0 (−2, 1) | CGI-S Median (Range) ([4]; Period 1, 56 mg): 4.0 (1, 5) | CGI-S Median Change (Range) from baseline to end point ([4]; Period 1, 56 mg): −1.0 (−3, 0) | CGI-S Median (Range) ([4]; Period 1, 84 mg): 4.0 (1, 6) | CGI-S Median Change (Range) from baseline to end point ([4]; Period 1, 84 mg): −0.5 (−4, 0) | CGI-S Median (Range) ([4]; Period 2, 28 mg): 4.0 (3, 5) | CGI-S Median Change (Range) from baseline to end point ([4]; Period 2, 28 mg): −1.0 (−1, 0) | CGI-S Median (Range) ([4]; Period 2, 56 mg): 5.0 (4, 6) | CGI-S Median Change (Range) from baseline to end point ([4]; Period 2, 56 mg): −1.0 (−2, 0) | CGI-S Median (Range) ([4]; Period 2, 84 mg): 4.0 (3, 5) | CGI-S Median Change (Range) from baseline to end point ([4]; Period 2, 84 mg): −1.0 (−2, 0)
